According to publication PMC11645267, “Novel pharmacologic inhibition of lysine-specific demethylase 1 as a potential therapeutic for glioblastoma” (Cancer Gene Therapy, 2024):

Legend:
[1] = tested on: GSC1228 intracranial xenograft; assay: Intracranial xenograft mouse model inoculated with GSC1228 cells; type: in vivo, NOD/SCID mice
Description: All experiments were performed under protocols approved by the Institutional Animal Care and Use Committee of Nagoya University of Graduate School of Medicine. Cells (1 × 10^5 cells per mouse) were injected intracranially into 6-week-old female NOD/SCID mice (n = 20, SLC, Shizuoka, Japan). Four weeks after the injection, S2172 or DMSO were intravenously injected five days a week for 3 weeks (10 mg/kg per day, 15 injections in total). We used established guidelines to determine the sample size for the mouse experiments. The mice were assigned randomly to experimental and control groups. There was no blinding applied in the experiment.
We utilized intracranial xenograft mouse models inoculated with GSC1228 cells. After 30 days of inoculation, we administered S2172 intravenously at 10 mg/kg five times a week for three weeks. […] Following treatment with S2172 for one week, mice were sacrificed, and the xenograft glioma tissues were examined. The H3K4me2 level was increased in the tumor regions treated with S2172 (P < 0.01, Fig. 4B). Consistent with the in vitro analysis, the protein levels of Nestin and SOX2 were decreased in tumor tissues (Fig. 4C).
Fig. 4 S2172 eradicates tumor cells in GSC brain tumor mouse model. A Tumor volume was assessed by MRI after treatment with either DMSO or S2172 for 15 times. Error bars represent the SD. *P < 0.05. n = 7. B H3K4me2 level in the tumor tissue from the mouse brain (left panel). Quantification of western blot band signal intensity (right panel). The y-axis in the panel indicates the relative signal intensity of each protein normalized to histone H3. […] Quantification of western blot band signal intensity (right panel). […]
(§1) The density of bands was quantified using ImageJ software (https://imagej.nih.gov/ij/). […]
(§2) When mice were scanned with MRI, mice were anesthetized with isoflurane (3% in air) and placed in MRS 3017 Benchtop MRI Systems (MR Solutions, Guildford, UK). Using MRI images, tumor volumes were obtained by compiling tumor areas from all slices that contained tumors and calculated by ImageJ software (https://imagej.nih.gov/ij/) {Towner, […]

[2] = tested on: LN229; assay: Western blot of global histone modifications; type: cell-based; conditions: LN229, 5 μM, 96 h
Description: The effects of S2172 on global histone modifications in GSCs were examined using western blot analysis. GSC cells were treated with 5 μM of S2172 since […] of the cells are still viable at this concentration (Fig. 2, Supplementary Fig. S1E). […] Treatment of GSCs with S2172 increased the overall levels of H3K4me2 as well as H3K9me2. However, these changes were not statistically significant (Fig. 2A, B). […]
instructions. For GSC cells, the CellTiter-Glo 3D Viability Assay (Promega, Madison, WI, USA) was used to measure the living cells. All proliferation experiments were repeated […]
as §1, §2
A. Western blot analysis (left panel) of H3K4me1, H3K4me2, H3K4me3, and H3K9me2 after treatment with either DMSO or S2172 5μM for 96 h in LN229. […] Quantification of signal intensity of western blot (right panel). […] Ratio was calculated by dividing cleaved band intensity by total protein band intensity. […]

SMILES: NC1CCC(NC2CC2c2cc(F)cc(F)c2OCc2ccccc2)CC1 (stereo not shown) [S2172]
- tumor area (MRI; HE-stained tissue images) ([1]; 10 mg/kg intravenously five times a week for three weeks, P < 0.05 MRI, P < 0.01 HE): significantly smaller
- protein levels of Nestin and SOX2 in tumor tissues ([1]; after one week of treatment): decreased
- H3K4me2 level in tumor regions ([1]; after one week of treatment, P < 0.01): increased
- level of H3K4me2 [2]: significantly increased
